Reference: patent publication US20120009590A1, “DEVICE AND NON-TOXIC COMPOSITIONS AND METHODS FOR PERMEABILIZATION OF DROSOPHILA EMBRYOS” (The University of Vermont and State Agriculture College, priority 2009, published 2012)

What was measured:
[1] = test system: engrailed-GFP embryos; settings: EPS-permeabilized embryos
Protocol: Incubations of permeabilized embryos were carried out in two types of chambers. Longer-term incubations (6-48 hours) were done in a modified nitex basket (see FIG. 1). The basket-reservoir apparatus was covered with a tight fitting cap to limit evaporation and was incubated at 18° C. for continued development of the embryo. Short term incubations <3 hours were done in a slide chamber (see FIG. 2A). […] Incubations for early embryonic endpoints were done at room temperature and for later developmental endpoint (e.g. gut development and engrailed patterning) at 18° C.
Drug treatments were done by additions to the PBS solution reservoir during incubation in either the slide or basket chambers. Drugs used were: cycloheximide (Fluka 01810, MW=281.35, 50 mM stock in H2O), colchicine (Biomol Labs T118, MW=[…] in H2O), methylmercury chloride (Aldrich 442534, MW=251, 50 mM stock in DMSO), cytochalasin D (Sigma C8273, MW=507.6, 5 mM stock in DMSO) and cyclophosphamide (LKT C9609, MW=279.1, 100 mM stock in H2O).
The engrailed gene encodes a homeodomain transcription factor that is highly conserved in all metazoans. Engrailed is a segment polarity gene whose expression marks the […] boundary of each segment in the embryo. Engrailed also function in neural development to define developing brain regions and regulate growth of axons.

[2] = Miscibility with water; type: physicochemical; settings: without surfactant
Protocol: The presence of at least one surfactant is required to allow for the formation of a stable emulsion for sufficient time to allow for permeabilization of the embryos (i.e., at least about 10 minutes).

[3] = test system: Canton S embryos; assay: Scoring of cephalic furrow formation and germband elongation in embryos; type: in vivo, Drosophila melanogaster
Protocol: Effects of EPS and cycloheximide or other agents on embryo development were scored using contemporaneous DIC optics and fluorescent visualization. Canton S embryos were collected from a 3 hr laying and aged one additional hour at 25° C. Embryos were treated with 1:10 EPS in H2O for 30-60 seconds followed by washing and immersion in 1 mM rhodamine B dye in PBS for 5 minutes with rocking. Embryos were washed four times in PBS and immersed in PBS containing 10 μM cycloheximide on a Kiehart slide. Embryos were allowed to develop an additional 1.5 hours at ambient temperature (˜23° C.). […] Variable treatments included omission of EPS exposure or omission of cycloheximide or other toxic agent. Each condition was assayed in three independent preparations of embryos with >180 embryos scored for each treatment condition.
We next sought to determine the feasibility of using an early embryogenesis endpoint as an indicator of teratogenic effects. In separate experiments using flies carrying the GFP reporter for the Dorsal protein we determined that CHX had profound effects on the morphogenetic movements of the embryo in the first 3-5 hours of development (see FIG. 13 below). During these stages formation of the cephalic furrow and germband elongation serve as landmarks that are easily identifiable under differential interference contrast (DIC) microscopy (see FIG. 8). […]

[4] = test system: Drosophila embryos; assay: Midgut development by blue yolk auto-fluorescence at Stage 16; type: in vivo, Drosophila melanogaster; settings: EPS-treated 3 hr old embryos, 10 μM, 18° C., 20 hours
Protocol: The embryo develops into a larva in 22-24 hours at 25° C. (refer to FIG. 9A). […] We investigated a variety of morphological events leading up to stage 17 for potentially easily identifiable endpoints. Through monitoring development under fluorescence time-lapse imaging we observed the highly dynamic pattern of blue fluorescence emitted from the auto-fluorescence of yolk proteins in the embryo. At preblastodem stages a relatively uniformly dispersed blue fluorescence is seen across the embryo (FIG. 11A). Between 3-6 hours of development this pattern changes drastically as the yolk proteins are pushed aside during germband elongation (refer to FIG. 9A). […] Blue fluorescence is seen to consolidate in the lumen of the gut initially as one large mass in the newly fused midgut (FIG. 11A, 12 hrs). […] The compartmentalized strong blue fluorescence in the midgut makes normally developed Stage 16/17 embryos easily discernable under fluorescence (FIG. 11A, 14 hrs).
We next tested the utility of this endpoint to examine small molecule toxicity by exposing permeabilized embryos to cycloheximide (CHX), a potent protein synthesis inhibitor and teratogen. EPS-treated 3 hr old embryos were incubated in the presence (FIG. 11 D, E) or absence (FIG. 11A,B,C) of 10 μM CHX at 18° C. for 20 hours (equivalent to 10 hours at 25° C.) and examined under blue fluorescence. […]

[5] = test system: Dorsal-GFP embryos; assay: Dorsal-GFP reporter in preblastoderm embryos; type: in vivo, Drosophila melanogaster; settings: EPS treated preblastoderm embryos
Description: We turned to the Dorsal-GFP transgenic fusion construct reporter to further examine the effects of the teratogen CHX. The Dorsal protein is the Drosophila NF-κB homolog which is central to signaling that establishes the dorsal-ventral axis in the embryo. Dorsal protein localizes to ventral cell nuclei where it acts to define the D/V axis.
Using this same Dorsal-GFP construct we see dynamic distribution of Dorsal-GFP in and out of the ventral nuclei of an EPS treated pre-blastoderm embryos (FIG. 13A, B). […] In many cases these early embryos are seen to stall in development. […] Embryos affected at slightly later stages show irregular nuclear Dorsal accumulation (FIG. 13D) as well as varied sizes in the nuclei present (FIG. 13E). It is interesting to note that these deformities occur more frequently in the anterior portion of the embryo, consistent with the gradient of dye dispersal seen in EPS treated embryos.

[CH3][Hg][Cl] [MeHg, methylmercury chloride]
engrailed-GFP expression pattern and embryo development [1]: stalls the embryo at Stage 11 and disrupts the regularity of engrailed banding pattern

O=P1(N(CCCl)CCCl)NCCCO1 (centres unmarked) [cyclophosphamide]
engrailed-GFP expression pattern and embryo development [1]: overall shortening of the embryo and generates breaks in the bands of engrailed expressing cells

C=C(C)C1CC=C(C)CC1 [Limonene, D-Limonene]
miscibility with water [2]: not miscible with water

C[C@@H]1C[C@@H]([C@H](O)CC2CC(=O)NC(=O)C2)C(=O)[C@@H](C)C1 [CHX, cycloheximide]
cephalic furrow formation ([3]; 2.5 hr old permeabilized embryos, 10 μM, 1.5 hours): disruption of cephalic furrow formation | EPS treated embryos with abnormal formation of the cephalic furrow ([3]; CHX 10 μM, EPS treated embryos): more than 80% | gut development (blue fluorescence pattern) [4]: induced gut malformation | pattern of nuclear divisions and Dorsal-GFP distribution [5]: gross deformities in the pattern of nuclear divisions and Dorsal distribution

C=C1[C@@H](C)[C@H]2[C@H](Cc3ccccc3)NC(=O)[C@]23[C@H](OC(C)=O)/C=C/[C@@](C)(O)C(=O)[C@@H](C)C/C=C/[C@H]3[C@@H]1O [Cytochalasin D, cytochalasin D]
engrailed-GFP expression pattern and embryo development [1]: stalling of embryo development at Stage 11 with gaps in the Engrailed band of cells in several segments
